Source: patent US20260167619A2, “INDOLINE COMPOUNDS AND DERIVATIVES AS EGFR INHIBITORS” (BeOne Medicines I GmbH, priority 2020, published 2026)

Columns and labels:
[1] = target: EGFR(Dell9_T790M_C797S) (aa 669-1210, in house) (Homo sapiens, UniProt P00533, T790M/C797S, form not given); test: Biochemical EGFR inhibition assay (TR-FRET), Del19/T790M/C797S mutant; settings: ATP at Km, 15 min pre-incubation, 60 min reaction; read-out: Del_TM_CS (Km ATP) IC50
Procedure: (§1) Compounds were tested for inhibition of kinase activity against EGFR (aa668-1210, Invitrogen), EGFR(L858R_T790M_C797S) (aa695-end, Invitrogen) and EGFR(Dell9_T790M_C797S) (aa 669-1210, in house) in assays based on time-resolved fluorescence-resonance energy transfer (TR-FRET) methodology. Recombinant EGFR, EGFR(L858R_T790M_C797S) or EGFR(Dell9_T790M_C797S) was pre-incubated with the compounds at room temperature for 15 minutes in an assay buffer containing 50 mM HEPES pH7.5, 10 mM MgCl2, 2 mM DTT, 1 mM EGTA, 0.1% BSA, 0.01% Tween-20. The reactions were initiated by the addition of ATP (at the concentration of ATP Km) and substrate Biotin-Poly GT. After reaction at room temperature for 60 minutes, stop/detection solution was added. The stop/detection solution contained Eu^3+ cryptate-conjugated mouse monoclonal antibody (PT66) anti-phosphotyrosine and XL665-conjugated streptavidin in buffer containing 50 mM HEPES pH7.0, 800 mM KF, 20 mM EDTA, and 0.1% BSA. Plates were sealed and incubated at room temperature for 1 hour, and the TR-FRET signals (ratio of fluorescence emission at 665 nm over emission at 620 nm with excitation at 337 nm wavelength) were recorded on a PHERAstar FS plate reader (BMG Labtech). The residual enzyme activity in presence of increasing concentrations of compounds was calculated based on the ratio of fluorescence at 665 nm to that at 620 nm. The IC50 for each compound was derived from fitting the data to the four-parameter logistic equation by Dotmatics or Graphpad Prism software.
(§2) These biochemical EGFR enzyme form compound dose-response assays quantify the kinase activity via phosphorylation of a tagged poly-GT substrate. The results of the assay are provided as IC50 values.

[2] = target: T1, EGFR(L858R_T790M_C797S) (aa695-end, Invitrogen) (Homo sapiens, UniProt P00533, C797S/L858R/T790M); test: Biochemical EGFR inhibition assay (TR-FRET), L858R/T790M/C797S mutant; settings: ATP at Km, 15 min pre-incubation, 60 min reaction; read-out: LR_TM_CS (Km ATP) IC50
T1 construct: purchased Invitrogen
T1 sequence (P00533 695-1210 T790M/C797S/L858R): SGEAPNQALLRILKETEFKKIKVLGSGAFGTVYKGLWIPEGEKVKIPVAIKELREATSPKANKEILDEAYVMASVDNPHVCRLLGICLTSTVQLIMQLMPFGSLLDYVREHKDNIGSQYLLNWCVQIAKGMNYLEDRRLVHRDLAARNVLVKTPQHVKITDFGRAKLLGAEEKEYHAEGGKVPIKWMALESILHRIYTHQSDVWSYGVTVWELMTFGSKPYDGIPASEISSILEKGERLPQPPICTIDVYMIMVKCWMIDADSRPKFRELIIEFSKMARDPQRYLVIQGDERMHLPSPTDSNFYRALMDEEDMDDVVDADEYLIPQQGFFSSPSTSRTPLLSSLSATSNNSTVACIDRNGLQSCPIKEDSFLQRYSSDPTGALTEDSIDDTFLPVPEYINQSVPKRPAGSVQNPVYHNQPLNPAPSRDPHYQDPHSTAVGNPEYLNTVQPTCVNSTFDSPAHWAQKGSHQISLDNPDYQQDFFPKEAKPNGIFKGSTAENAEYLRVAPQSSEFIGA
Procedure: as §1, §2

[3] = target: T2, EGFR (aa668-1210, Invitrogen) (Homo sapiens, UniProt P00533); test: Biochemical EGFR inhibition assay (TR-FRET), wild-type EGFR; settings: ATP at Km, 15 min pre-incubation, 60 min reaction; read-out: WT (Km ATP) IC50
T2 construct: EGFR (aa668-1210, Invitrogen); purchased Invitrogen
T2 sequence (P00533 668-1210): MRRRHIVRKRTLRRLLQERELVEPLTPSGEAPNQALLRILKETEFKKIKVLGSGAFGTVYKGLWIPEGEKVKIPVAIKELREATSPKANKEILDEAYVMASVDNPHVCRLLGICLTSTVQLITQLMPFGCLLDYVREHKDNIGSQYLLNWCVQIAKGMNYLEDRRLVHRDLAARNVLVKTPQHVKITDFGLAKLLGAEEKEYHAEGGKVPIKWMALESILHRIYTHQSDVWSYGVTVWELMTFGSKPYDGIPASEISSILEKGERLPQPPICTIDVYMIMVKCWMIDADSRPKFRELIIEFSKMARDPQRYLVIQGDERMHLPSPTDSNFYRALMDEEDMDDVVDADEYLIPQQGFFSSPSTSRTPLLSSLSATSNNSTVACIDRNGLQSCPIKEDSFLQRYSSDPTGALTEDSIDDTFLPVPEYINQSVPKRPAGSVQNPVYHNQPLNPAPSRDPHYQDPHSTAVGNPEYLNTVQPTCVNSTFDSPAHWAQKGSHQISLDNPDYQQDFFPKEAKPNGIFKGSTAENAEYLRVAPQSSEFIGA
Procedure: as §1, §2

Sequence of EGFR(Dell9_T790M_C797S) (aa 669-1210, in house) (P00533 with tags, fused parts or gaps DEL746-750/T790M/C797S, form open): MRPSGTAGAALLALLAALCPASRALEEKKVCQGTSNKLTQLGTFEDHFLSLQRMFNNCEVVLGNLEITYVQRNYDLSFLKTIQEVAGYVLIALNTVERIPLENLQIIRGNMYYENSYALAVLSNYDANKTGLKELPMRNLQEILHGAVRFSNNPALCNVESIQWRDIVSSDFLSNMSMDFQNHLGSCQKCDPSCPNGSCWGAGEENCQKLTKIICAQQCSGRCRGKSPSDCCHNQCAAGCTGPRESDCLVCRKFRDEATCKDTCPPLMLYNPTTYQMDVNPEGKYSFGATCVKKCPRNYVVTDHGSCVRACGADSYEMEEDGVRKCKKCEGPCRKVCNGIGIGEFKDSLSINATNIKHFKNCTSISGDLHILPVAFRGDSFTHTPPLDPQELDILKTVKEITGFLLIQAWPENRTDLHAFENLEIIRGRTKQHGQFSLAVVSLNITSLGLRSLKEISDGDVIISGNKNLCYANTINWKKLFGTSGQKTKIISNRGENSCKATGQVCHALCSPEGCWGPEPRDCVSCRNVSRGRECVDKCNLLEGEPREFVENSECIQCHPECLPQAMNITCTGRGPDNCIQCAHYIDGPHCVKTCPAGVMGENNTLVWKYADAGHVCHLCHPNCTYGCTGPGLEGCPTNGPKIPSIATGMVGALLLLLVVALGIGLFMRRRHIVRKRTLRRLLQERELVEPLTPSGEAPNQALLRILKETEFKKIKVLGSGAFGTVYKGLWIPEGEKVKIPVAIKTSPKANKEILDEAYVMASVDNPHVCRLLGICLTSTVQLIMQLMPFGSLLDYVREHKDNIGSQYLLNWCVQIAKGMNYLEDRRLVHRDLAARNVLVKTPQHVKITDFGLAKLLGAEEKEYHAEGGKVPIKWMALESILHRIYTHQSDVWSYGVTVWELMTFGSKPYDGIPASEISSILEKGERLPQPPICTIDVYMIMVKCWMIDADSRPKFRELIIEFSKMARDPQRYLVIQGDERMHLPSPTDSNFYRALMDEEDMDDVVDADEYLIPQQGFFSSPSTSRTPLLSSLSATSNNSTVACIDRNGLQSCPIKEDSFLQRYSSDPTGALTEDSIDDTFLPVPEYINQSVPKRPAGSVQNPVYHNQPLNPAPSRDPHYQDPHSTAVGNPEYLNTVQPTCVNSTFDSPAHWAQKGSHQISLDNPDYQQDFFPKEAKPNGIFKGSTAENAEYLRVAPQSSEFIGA

Row | SMILES | IC50 [1] [nM] | IC50 [2] [nM] | IC50 [3] [nM]
1 | CN1CCN(C2CCN(c3ccc(Nc4nc(Nc5cccc6c5N(S(C)(=O)=O)CC6)c5cc[nH]c5n4)cc3Cl)CC2)CC1 [Example 80, N^2-(3-chloro-4-(4-(4-methylpiperazin-1-yl)piperidin-1-yl)phenyl)-N^4-(1-(methylsulfonyl)indolin-7-yl)-7H-pyrrolo[2,3-d]pyrimidine-2,4-diamine] | 0.85 | 0.7 | 40.4
2 | COc1cc(N2CCC(N3CCN(C)C4(CC4)C3)CC2)ccc1Nc1nc(Nc2cccc3c2N(S(C)(=O)=O)CC3)c2cc[nH]c2n1 [Example 189, N2-(2-methoxy-4-(4-(4-methyl-4,7-diazaspiro[2.5]octan-7-yl)piperidin-1-yl)phenyl)-N4-(1-(methylsulfonyl)indolin-7-yl)-7H-pyrrolo[2,3-d]pyrimidine-2,4-diamine] | 1.2 | 0.9 | 35.3
3 | CN(C)C1CCN(c2ccc(Nc3ncc(Br)c(Nc4cccc5c4N(S(C)(=O)=O)CC5)n3)c3c2CC(C)(C)O3)CC1 [Example 55, 5-bromo-N^2-(4-(4-(dimethylamino)piperidin-1-yl)-2,2-dimethyl-2,3-dihydrobenzofuran-7-yl)-N^4-(1-(methylsulfonyl)indolin-7-yl)pyrimidine-2,4-diamine] | 5.82 | 7 | 64.5
4 | CN1CCN(c2ccc(Nc3ncc(Br)c(Nc4cccc5c4N(S(C)(=O)=O)CC5)n3)c3c2CC(C)(C)O3)CC1 [Example 56, 5-bromo-N^2-(2,2-dimethyl-4-(4-methylpiperazin-1-yl)-2,3-dihydrobenzofuran-7-yl)-N^4-(1-(methylsulfonyl)indolin-7-yl)pyrimidine-2,4-diamine] | 10.6 | 23.3 | 241
5 | CN1CCN(C2CCN(c3ccc(Nc4nc(Nc5cccc6c5N(S(C)(=O)=O)CC6)c5cc[nH]c5n4)c4c3OCO4)CC2)CC1 [Example 182, N2-(7-(4-(4-methylpiperazin-1-yl)piperidin-1-yl)benzo[d][1,3]dioxol-4-yl)-N4-(1-(methylsulfonyl)indolin-7-yl)-7H-pyrrolo[2,3-d]pyrimidine-2,4-diamine] | 1.5 | 1.2 | 230
6 | CN1CCN(c2c(F)cc(Nc3ncc(Br)c(Nc4cccc5c4N(S(C)(=O)=O)CC5)n3)c3c2CCO3)CC1 [Example 58, 5-bromo-N^2-(5-fluoro-4-(4-methylpiperazin-1-yl)-2,3-dihydrobenzofuran-7-yl)-N^4-(1-(methylsulfonyl)indolin-7-yl)pyrimidine-2,4-diamine] | 1.57 | 1.7 | 10.3
7 | CCN1CCN(C2CCN(c3c(F)cc(Nc4nc(Nc5cccc6c5N(S(C)(=O)=O)CC6)c5cc[nH]c5n4)cc3F)CC2)CC1 [Example 78, N^2-(4-(4-(4-ethylpiperazin-1-yl)piperidin-1-yl)-3,5-difluorophenyl)-N^4-(1-(methylsulfonyl)indolin-7-yl)-7H-pyrrolo[2,3-d]pyrimidine-2,4-diamine] | 2 | 1.5 | 99
8 | CC1Cc2c(N3CCC(N4CCN(C)CC4)CC3)ccc(Nc3ncc(Br)c(Nc4cccc5c4N(S(C)(=O)=O)CC5)n3)c2O1 (stereo not drawn) [Example 61, 5-bromo-N^2-(2-methyl-4-(4-(4-methylpiperazin-1-yl)piperidin-1-yl)-2,3-dihydrobenzofuran-7-yl)-N^4-(1-(methylsulfonyl)indolin-7-yl)pyrimidine-2,4-diamine] | 1.58 | 1.5 | 15.2
9 | CCN1CCN(C2CCN(c3cc(F)c(Nc4ncc(Br)c(Nc5cccc6c5N(S(C)(=O)=O)CC6)n4)cc3F)CC2)CC1 [Example 185, 5-bromo-N2-(4-(4-(4-ethylpiperazin-1-yl)piperidin-1-yl)-2,5-difluorophenyl)-N4-(1-(methylsulfonyl)indolin-7-yl)pyrimidine-2,4-diamine] | 0.3 | 0.3 | 1.5
10 | Cc1cc(Nc2nc(Nc3cccc4c3N(S(C)(=O)=O)CC4)c3cc[nH]c3n2)ccc1N1CCC(N2CCN(C)CC2)CC1 [Example 82, N^2-(3-methyl-4-(4-(4-methylpiperazin-1-yl)piperidin-1-yl)phenyl)-N^4-(1-(methylsulfonyl)indolin-7-yl)-7H-pyrrolo[2,3-d]pyrimidine-2,4-diamine] | 0.85 | 0.7 | 39.7
11 | COc1cc(N(C)CCN(C)C)ccc1Nc1nc(Nc2cccc3c2N(S(C)(=O)=O)CC3)c2cc[nH]c2n1 [Example 112, N^2-(4-((2-(dimethylamino)ethyl)(methyl)amino)-2-methoxyphenyl)-N^4-(1-(methylsulfonyl)indolin-7-yl)-7H-pyrrolo[2,3-d]pyrimidine-2,4-diamine] | 14.6 | 2.9 | 840
12 | COc1cc(N2CCC(N3CCN(C)CC3)CC2)ccc1Nc1ncc(Br)c(Nc2cccc3c2N(S(C)(=O)=O)CC32CC2)n1 [Example 28, 5-bromo-N^2-(2-methoxy-4-(4-(4-methylpiperazin-1-yl)piperidin-1-yl)phenyl)-N^4-(1′-(methylsulfonyl)spiro[cyclopropane-1,3′-indolin]-7′-yl)pyrimidine-2,4-diamine] | 0.39 | 0.44 | 0.9
13 | COc1cc(-c2cnn(CCN(C)C)c2)ccc1Nc1nc(Nc2cccc3c2N(S(C)(=O)=O)CC3)c2cc[nH]c2n1 [Example 113, N^2-(4-(1-(2-(dimethylamino)ethyl)-1H-pyrazol-4-yl)-2-methoxyphenyl)-N^4-(1-(methylsulfonyl)indolin-7-yl)-7H-pyrrolo[2,3-d]pyrimidine-2,4-diamine] | 18.5 | 16 | 1470
14 | COc1cc(N2CCC(N3CCN(C)CC3)CC2)ccc1Nc1ncc(Cl)c(Nc2cccc3c2N(S(=O)(=O)CF)CC3)n1 [Example 12, 5-chloro-N^4-(1-((fluoromethyl)sulfonyl)indolin-7-yl)-N^2-(2-methoxy-4-(4-(4-methylpiperazin-1-yl)piperidin-1-yl)phenyl)pyrimidine-2,4-diamine] | 0.44 | 1.17 | 3
15 | COc1cc(N2CCN(C)[C@@H](C)C2)c(C)cc1Nc1ncc(Br)c(Nc2cccc3c2N(S(C)(=O)=O)CC3)n1 [Example 43, (S)-5-bromo-N^2-(4-(3,4-dimethylpiperazin-1-yl)-2-methoxy-5-methylphenyl)-N^4-(1-(methylsulfonyl)indolin-7-yl)pyrimidine-2,4-diamine] | 0.5 | 0.5 | 12.1
16 | CN1CCN(C2CCN(c3ccc(Nc4nc(Nc5cccc6c5N(S(C)(=O)=O)CC6)c5cc[nH]c5n4)nc3)CC2)CC1 [Example 154, N2-(5-(4-(4-methylpiperazin-1-yl)piperidin-1-yl)pyridin-2-yl)-N4-(1-(methylsulfonyl)indolin-7-yl)-7H-pyrrolo[2,3-d]pyrimidine-2,4-diamine] | 2.2 | 2.7 | 303
17 | COc1cc(N2C[C@@H](C)N(C)[C@@H](C)C2)c(C)cc1Nc1ncc(Br)c(Nc2cccc3c2N(S(C)(=O)=O)CC3)n1 [Example 42, 5-bromo-N^2-(2-methoxy-5-methyl-4-((3S,5R)-3,4,5-trimethylpiperazin-1-yl)phenyl)-N^4-(1-(methylsulfonyl)indolin-7-yl)pyrimidine-2,4-diamine] | 0.3 | 0.4 | 8.5
18 | COc1cc(C2CCN(CCN(C)C)CC2)c(C)cc1Nc1nc(Nc2cccc3c2N(S(C)(=O)=O)CC3)c2cc[nH]c2n1 [Example 109, N^2-(4-(1-(2-(dimethylamino)ethyl)piperidin-4-yl)-2-methoxy-5-methylphenyl)-N^4-(1-(methylsulfonyl)indolin-7-yl)-7H-pyrrolo[2,3-d]pyrimidine-2,4-diamine] | 10 | 3.1 | 433
19 | COc1cc(N2CCC(N3CCN(C)CC3)CC2)ncc1Nc1nc(Nc2cccc3c2N(S(C)(=O)=O)CC3)c2cc[nH]c2n1 [Example 190, N2-(4-methoxy-6-(4-(4-methylpiperazin-1-yl)piperidin-1-yl)pyridin-3-yl)-N4-(1-(methylsulfonyl)indolin-7-yl)-7H-pyrrolo[2,3-d]pyrimidine-2,4-diamine] | 5.6 | 3.8 | 883
